From US9120774B2 (University of Kansas, priority 2009, dated 2015)
Where two headings read alike, the source gives them in different places.

Assays:
Assay type in all cases: cell-based
[1] = tested on: SkBr3 (Her2 overexpressing breast cancer cells); test: Anti-proliferation activity against SkBr3 cells (MTS/PMS); settings: Homo sapiens, SK-BR-3, n = 3, read-out: IC50 SkBr3
In short: (§1)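 Cells seeded at 2000/well, attached overnight, then exposed to compound at varying concentrations (1% DMSO final) for 72 hours at 37° C. Viable cells read by MTS/PMS, normalised to 1% DMSO as 100% proliferation. IC50 from separate triplicate experiments.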

[2] = tested on: MCF-7 (estrogen receptor positive breast cancer cells); test: Anti-proliferation activity against MCF-7 cells (MTS/PMS); settings: Homo sapiens, MCF7, n = 3, read-out: IC50 MCF-7
In short: as §1

[3] = tested on: HCT-116 (colon cancer cells characterized by wild-type p53); test: Anti-proliferation activity against HCT-116 cells; settings: Homo sapiens
Protocol: (§2) Upon completion of synthesis of library of compounds in Examples 23 and 24, the compounds were evaluated for anti-proliferative activity against SkBr3 (Her2 overexpressing breast cancer cells), MCF-7 (estrogen receptor positive breast cancer cells), HCT-116 (colon cancer cells characterized by wild-type p53), PL45 (pancreatic cancer cells), LNCaP (androgen sensitive prostate cancer cells) and PC-3 (androgen independent prostate cancer cells) cell lines. […] The monosubstituted benzamide variants improved activity.

[4] = tested on: PL45 (pancreatic cancer cells); test: Anti-proliferation activity against PL45 cells
Protocol: as §2

[5] = tested on: LNCaP (androgen sensitive prostate cancer cells); test: Anti-proliferation activity against LNCaP cells; settings: Homo sapiens, LNCaP, n = 3, read-out: IC50 LNCaP
In short: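 Cells seeded at 2000/well in Advanced DMEM/F12 with 10% FBS and attached overnight, then given compound in 1% DMSO final for 72 h at 37 °C, 5% CO2. Viable cells by MTS/PMS read-out, normalised to 1% DMSO as 100% proliferation. IC50 from separate triplicate experiments.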

[6] = tested on: PC-3 (androgen independent prostate cancer cells); test: Anti-proliferation activity against PC-3 cells; settings: Homo sapiens, PC-3, n = 3, read-out: IC50 PC-3
In short: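 Antiproliferative activity was tested in PC-3 androgen-independent prostate cancer cells. Cells grown at 37° C. with 5% CO2 in Advanced DMEM/F12 (1:1) containing non-essential amino acids, 2 mM L-glutamine, streptomycin, penicillin and 10% FBS were plated at 2000/well in 96-well plates. Proliferation was normalized to 1% DMSO controls, and IC50 values from triplicate experiments were fitted in GraphPad Prism.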

[7] = Table 4, biaryl analogues, n = 3
[8] = Table 5, heterocyclic analogues
[9] = Table 5, heterocyclic analogues, n = 3

| SMILES | IC50 ([1]; Table 2) [µM] | IC50 ([2]; Table 2) [µM] | IC50 ([3]; Table 2, n = 3) [µM] | IC50 ([4]; Table 2, n = 3) [µM] | IC50 ([5]; Table 2) [µM] | IC50 ([6]; Table 2) [µM] | IC50 ([1]; Table 4, biaryl analogues) [µM] | IC50 ([2]; Table 4, biaryl analogues) [µM] | IC50 [3, 7] [µM] | IC50 [4, 7] [µM] | IC50 ([5]; Table 4, biaryl analogues) [µM] | IC50 ([6]; Table 4, biaryl analogues) [µM] | other results |
| --- | --- | --- | --- | --- | --- | --- | --- | --- | --- | --- | --- | --- | --- |
| CO[C@@H]1[C@@H](O)[C@@H](O)[C@H](Oc2ccc3cc(NC(=O)CCc4ccccc4)c(=O)oc3c2C)OC1(C)C [compound 23, N-(7-((2R,3R,4S,5R)-3,4-Dihydroxy-5-methoxy-6,6-dimethyltetrahydro-2H-pyran-2-yloxy)-8-methyl-2-oxo-2H-chromen-3-yl)-3-phenylpropanamide] | – | – | – | – | – | – | – | – | – | – | – | – | IC50 ([1]; Table 3): 10.2 ± 2.3 µM; IC50 ([2]; Table 3): 6.9 ± 0.3 µM; IC50 ([3]; Table 3, n = 3): 5.4 ± 0.6 µM; IC50 ([4]; Table 3, n = 3): 9.8 ± 0.2 µM; IC50 ([5]; Table 3): 92.8 ± 0.9 µM; IC50 ([6]; Table 3): 22 ± 5.8 µM |
| CO[C@@H]1[C@@H](O)[C@@H](O)[C@H](Oc2ccc3cc(NC(=O)c4ccccc4-c4ccccc4)c(=O)oc3c2C)OC1(C)C [compound 12, N-(7-((2R,3R,4S,5R)-3,4-Dihydroxy-5-methoxy-6,6-dimethyltetrahydro-2H-pyran-2-yloxy)-8-methyl-2-oxo-2H-chromen-3-yl)biphenyl-2-carboxamide] | 39.1 ± 4.1 | 18.9 ± 7 | 32.7 ± 1.6 | 14.4 ± 2.4 | 17.3 ± 5.2 | 65.3 ± 5.6 | – | – | – | – | – | – | – |
| CO[C@@H]1[C@@H](O)[C@@H](O)[C@H](Oc2ccc3cc(NC(=O)c4ccccc4N)c(=O)oc3c2C)OC1(C)C [compound 18, 2-Amino-N-(7-((2R,3R,4S,5R)-3,4-dihydroxy-5-methoxy-6,6-dimethyltetrahydro-2H-pyran-2-yloxy)-8-methyl-2-oxo-2H-chromen-3-yl)benzamide] | 17.7 ± 1.4 | 17.2 ± 3.3 | 14.4 ± 0.8 | 6.2 ± 1.3 | 12.7 ± 0.8 | 57.9 ± 10.1 | – | – | – | – | – | – | – |
| CO[C@@H]1[C@@H](O)[C@@H](O)[C@H](Oc2ccc3cc(NC(=O)c4ccc(N)cc4)c(=O)oc3c2C)OC1(C)C [compound 20, 4-Amino-N-(7-((2R,3R,4S,5R)-3,4-dihydroxy-5-methoxy-6,6-dimethyltetrahydro-2H-pyran-2-yloxy)-8-methyl-2-oxo-2H-chromen-3-yl)benzamide] | 33.1 ± 1.1 | 14 ± 0.5 | 24.4 ± 5.8 | 8.4 ± 0.3 | 26.4 ± 15.8 | 65.2 ± 2.8 | – | – | – | – | – | – | – |
| CO[C@@H]1[C@@H](O)[C@@H](O)[C@H](Oc2ccc3cc(NC(=O)c4ccccn4)c(=O)oc3c2C)OC1(C)C [compound 40, N-(7-((2R,3R,4S,5R)-3,4-Dihydroxy-5-methoxy-6,6-dimethyltetrahydro-2H-pyran-2-yloxy)-8-methyl-2-oxo-2H-chromen-3-yl)picolinamide] | – | – | – | – | – | – | – | – | – | – | – | – | IC50 [1, 8]: 28.4 ± 2 µM; IC50 [2, 8]: 20.3 ± 4.1 µM; IC50 [3, 9]: 23.3 ± 5.9 µM; IC50 [4, 9]: 7.9 ± 0.7 µM; IC50 [5, 8]: 44.9 ± 31.1 µM; IC50 [6, 8]: 15.1 ± 2.1 µM |
| COc1ccc(C(=O)Nc2cc3ccc(O[C@@H]4OC(C)(C)[C@H](OC)[C@@H](O)[C@H]4O)c(C)c3oc2=O)cc1-c1ccc(C)cc1 [compound 31, N-(7-((2R,3R,4S,5R)-3,4-Dihydroxy-5-methoxy-6,6-dimethyltetrahydro-2H-pyran-2-yloxy)-8-methyl-2-oxo-2H-chromen-3-yl)-6-methoxy-4′-methylbiphenyl-3-carboxamide] | – | – | – | – | – | – | 25.4 ± 1.7 | 16.7 ± 6.3 | 2.4 ± 1 | 1.4 ± 0.1 | 3.7 ± 0.9 | 31.9 ± 10.3 | – |
| COc1ccc(C(=O)Nc2cc3ccc(O[C@@H]4OC(C)(C)[C@H](OC)[C@@H](O)[C@H]4O)c(C)c3oc2=O)cc1 [compound 11, N-(7-((2R,3R,4S,5R)-3,4-Dihydroxy-5-methoxy-6,6-dimethyltetrahydro-2H-pyran-2-yloxy)-8-methyl-2-oxo-2H-chromen-3-yl)-4-methoxybenzamide] | 15.6 ± 4.2 | 10.3 ± 0.9 | 15.9 ± 1.9 | 5.9 ± 2.1 | 7.3 ± 0.9 | 17.1 ± 4.3 | – | – | – | – | – | – | – |
| CO[C@@H]1[C@@H](O)[C@@H](O)[C@H](Oc2ccc3cc(NC(=O)c4ccc5c(c4)OCO5)c(=O)oc3c2C)OC1(C)C [compound 45, N-(7-((2R,3R,4S,5R)-3,4-Dihydroxy-5-methoxy-6,6-dimethyltetrahydro-2H-pyran-2-yloxy)-8-methyl-2-oxo-2H-chromen-3-yl)benzo[d][1,3]dioxole-5-carboxamide] | – | – | – | – | – | – | – | – | – | – | – | – | IC50 [1, 8]: > 100 µM; IC50 [2, 8]: > 100 µM; IC50 [3, 9]: > 100 µM; IC50 [4, 9]: 5.2 ± 1.1 µM; IC50 [5, 8]: 9.3 ± 0.6 µM; IC50 [6, 8]: 10.9 ± 2.3 µM |
| COc1ccc(C(=O)Nc2cc3ccc(O[C@@H]4OC(C)(C)[C@H](OC)[C@@H](O)[C@H]4O)c(C)c3oc2=O)cc1-c1cccc2c1Sc1ccccc1S2 [compound 38, N-(7-((2R,3R,4S,5R)-3,4-Dihydroxy-5-methoxy-6,6-dimethyltetrahydro-2H-pyran-2-yloxy)-8-methyl-2-oxo-2H-chromen-3-yl)-4-methoxy-3-(thianthren-1-yl)benzamide] | – | – | – | – | – | – | > 100 | > 100 | > 100 | > 100 | 8.8 ± 0.6 | 1 ± 0.1 | – |

More lines, main results first:

| IC50 ([1]; Table 2) [µM] | IC50 ([2]; Table 2) [µM] | IC50 ([3]; Table 2, n = 3) [µM] | IC50 ([4]; Table 2, n = 3) [µM] | IC50 ([5]; Table 2) [µM] | IC50 ([6]; Table 2) [µM] | IC50 ([1]; Table 4, biaryl analogues) [µM] | IC50 ([2]; Table 4, biaryl analogues) [µM] | IC50 [3, 7] [µM] | IC50 [4, 7] [µM] | IC50 ([5]; Table 4, biaryl analogues) [µM] | IC50 ([6]; Table 4, biaryl analogues) [µM] | SMILES | other results |
| --- | --- | --- | --- | --- | --- | --- | --- | --- | --- | --- | --- | --- | --- |
| > 100 | > 100 | > 100 | > 100 | 69.3 ± 4.1 | > 100 | – | – | – | – | – | – | CO[C@@H]1[C@@H](O)[C@@H](O)[C@H](Oc2ccc3cc(NC(=O)c4ccc([N+](=O)[O-])cc4)c(=O)oc3c2C)OC1(C)C [compound 17, N-(7-((2R,3R,4S,5R)-3,4-Dihydroxy-5-methoxy-6,6-dimethyltetrahydro-2H-pyran-2-yloxy)-8-methyl-2-oxo-2H-chromen-3-yl)-4-nitrobenzamide] | – |
| – | – | – | – | – | – | 7.8 ± 0.5 | 37.9 ± 2.3 | 24 ± 0.3 | 2.6 ± 0.5 | 3.3 ± 0.6 | 44 ± 20.3 | COc1ccc(-c2cc(C(=O)Nc3cc4ccc(O[C@@H]5OC(C)(C)[C@H](OC)[C@@H](O)[C@H]5O)c(C)c4oc3=O)ccc2OC)cc1 [compound 34, N-(7-((2R,3R,4S,5R)-3,4-Dihydroxy-5-methoxy-6,6-dimethyltetrahydro-2H-pyran-2-yloxy)-8-methyl-2-oxo-2H-chromen-3-yl)-4′,6-dimethoxybiphenyl-3-carboxamide] | – |
| – | – | – | – | – | – | 7.5 ± 1 | 18.7 ± 1.8 | 5.1 ± 1.1 | 2 ± 0.6 | 2.1 ± 0.3 | 53.3 ± 4.5 | COc1cccc(-c2cc(C(=O)Nc3cc4ccc(O[C@@H]5OC(C)(C)[C@H](OC)[C@@H](O)[C@H]5O)c(C)c4oc3=O)ccc2OC)c1 [compound 33, N-(7-((2R,3R,4S,5R)-3,4-Dihydroxy-5-methoxy-6,6-dimethyltetrahydro-2H-pyran-2-yloxy)-8-methyl-2-oxo-2H-chromen-3-yl)-3′,6-dimethoxybiphenyl-3-carboxamide] | – |
| – | – | – | – | – | – | 1.6 ± 0.2 | 2.3 ± 0.8 | 1.4 ± 0.1 | 1.9 ± 0.8 | 2.6 ± 0.5 | 22.3 ± 3.6 | COc1ccc(C(=O)Nc2cc3ccc(O[C@@H]4OC(C)(C)[C@H](OC)[C@@H](O)[C@H]4O)c(C)c3oc2=O)cc1-c1ccc(O)cc1 [compound 37, N-(7-((2R,3R,4S,5R)-3,4-Dihydroxy-5-methoxy-6,6-dimethyltetrahydro-2H-pyran-2-yloxy)-8-methyl-2-oxo-2H-chromen-3-yl)-4′-hydroxy-6-methoxybiphenyl-3-carboxamide] | – |
